{"source": "paper PMC10850047", "about": "“Exploring the impact of PEGylation on pharmacokinetics: a size-dependent effect of polyethylene glycol on prostate-specific membrane antigen inhibitors” (EJNMMI Research, 2024)", "key": {"[1]": {"assay": "Radiochemical stability in PBS at 37 °C", "format": "physicochemical", "conditions": "2 h", "procedure": "(§1) The radiochemical purity of samples incubated in PBS at each time point was determined using RP-HPLC. For the samples in human serum, a pretreatment step was applied. Briefly, the human serum samples underwent precipitation with acetonitrile, and the radiochemical purity of each supernatant aliquot was determined using RP-HPLC after centrifugation for 5 min at 10,000 rpm. The experiments were performed in triplicate."}, "[2]": {"test_system": "LNCaP tumor-bearing NOD/SCID mice", "conditions": "mouse, in vivo"}, "LNCaP tumors": {"test_system": "LNCaP tumors", "assay": "Micro-PET/CT blocking experiment with 2-PMPA, LNCaP tumor model", "format": "in vivo, mice", "conditions": "40 nmol 2-PMPA 30 min before radioligand, static scan 60 min later", "procedure": "(§2) To perform imaging studies, the male mice bearing LNCaP tumors were injected with the corresponding radioligand (~ 2.5 MBq; 100 μL) via their tail veins. The micro-PET/CT scans (Inveon PET, Siemens) were conducted at 10, 30, 60, and 120 min after injection. The mice were anesthetized and maintained under 2% isoflurane in oxygen at a flow rate of 2 L/min during the 2-h imaging study. First, a 10 min static PET imaging acquisition was carried out, followed by a 10 min CT scan for localization and attenuation correction. Data analysis was performed using Inveon Research Workplace software. For PC3-PIP tumor model, the imaging studies were performed with micro-PET/SPECT/CT (Inliview-3000B, Novel Medical). Data analysis was performed using Nmsoft-Al ws v1.7–1 software.\n(§3) To evaluate the specificity of radioligands, blocking experiments were performed. In brief, 40 nmol of the PSMA inhibitor 2-PMPA was administered, followed by the injection of approximately 2.6 MBq of radioligands after 30 min. Then a static scan of micro-PET/CT was performed 60 min later."}, "[3]": {"assay": "Radiochemical stability in human serum at 37 °C", "format": "in vitro ADME", "conditions": "2 h", "procedure": "as §1"}, "LNCaP cells": {"test_system": "LNCaP cells", "assay": "Uptake and internalization in LNCaP cells", "format": "cell-based, human", "conditions": "120 min incubation, normalized to 10^6 cells", "procedure": "LNCaP prostate cancer cell line obtained from the American Type Culture Collection (ATCC, Manassas, VA) was used for cell affinity studies. […] The supernatant was disposed, and the cell pellet was resuspended in a culture medium, and LNCaP cells (150,000 cells/well) were counted with a hemocytometer and seeded in poly-L-lysine-coated 24-well plates used in cell binding studies. The cells were then allowed to grow at 37 °C for 48 h. PC3-PIP cells provided by Professor Xiaoyuan Chen (Singapore) require additional Puromycin (2 µg/ml) in addition to the appealed culture conditions."}, "[4]": {"test_system": "PC3-PIP tumor-bearing balb/c-nu mice", "assay": "Biodistribution in PC3-PIP tumor model", "format": "in vivo", "conditions": "mean ± SD (n=5)", "procedure": "All animal experiments were performed with the approval of the institutional animal ethics committee. Male NOD/SCID mice (5 − 6 weeks old) implanted with LNCaP cells were used for imaging and biodistribution experiments as previously described. The mice were imaged or used in biodistribution studies once the tumor grew to 8 − 10 mm in diameter over a period of 4 − 5 weeks. At the same time, male balb/c-nu mice (5 − 6 weeks old) implanted with PC3-PIP cells were used as an alternative tumor model for imaging and biodistribution experiments.\nTo conduct biodistribution studies, male mice bearing LNCaP or PC3-PIP tumors with an average body weight of approximately 20 ± 5 g and a tumor diameter of 8 − 10 mm were administered a bolus injection of 2.5 MBq of the corresponding radioligand via the tail vein. After 30, 60, and 120 min, the mice were anesthetized with isoflurane and subsequently euthanized by CO2 asphyxiation. Blood was drawn, and the organs of interest were promptly harvested, blotted dry, and weighed. The radioactivity of the collected mouse organs was measured and expressed as the percentage of the injected dose per gram of tissue (%ID/g). Each group consisted of at least five mice."}, "PC3-PIP tumors": {"test_system": "PC3-PIP tumors", "assay": "Micro-PET/CT blocking experiment with 2-PMPA, PC3-PIP tumor model", "format": "in vivo, mice", "conditions": "identical methodology", "procedure": "as §2, §3"}, "PSMA": {"target": "T1, PSMA (Homo sapiens, UniProt Q04609)", "T1 construct": "host or cells: LNCaP", "T1 sequence (Q04609 whole entry)": "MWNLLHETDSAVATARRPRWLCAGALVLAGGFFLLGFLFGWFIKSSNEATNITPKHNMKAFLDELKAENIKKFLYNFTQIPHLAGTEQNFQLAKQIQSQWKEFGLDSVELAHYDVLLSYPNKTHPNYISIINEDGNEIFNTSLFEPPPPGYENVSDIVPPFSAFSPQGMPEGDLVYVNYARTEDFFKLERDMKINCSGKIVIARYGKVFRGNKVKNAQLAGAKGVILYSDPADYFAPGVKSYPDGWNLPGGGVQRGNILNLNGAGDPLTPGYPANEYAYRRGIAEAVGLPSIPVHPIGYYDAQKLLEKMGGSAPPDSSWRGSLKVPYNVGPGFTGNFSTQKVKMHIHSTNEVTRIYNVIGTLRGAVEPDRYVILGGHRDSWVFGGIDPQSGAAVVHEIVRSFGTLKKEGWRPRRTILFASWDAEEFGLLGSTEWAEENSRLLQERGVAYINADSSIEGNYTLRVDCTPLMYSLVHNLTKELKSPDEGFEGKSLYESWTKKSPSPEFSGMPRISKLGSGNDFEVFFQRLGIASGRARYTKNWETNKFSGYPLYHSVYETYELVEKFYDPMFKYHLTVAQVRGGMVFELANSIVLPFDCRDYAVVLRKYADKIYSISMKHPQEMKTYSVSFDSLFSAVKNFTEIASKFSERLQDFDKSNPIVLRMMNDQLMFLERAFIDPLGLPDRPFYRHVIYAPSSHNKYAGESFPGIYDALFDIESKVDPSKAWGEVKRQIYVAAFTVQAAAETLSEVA", "assay": "Competitive cell binding assay against [68Ga]Ga-PSMA-11 on LNCaP cells", "conditions": "competition with [68Ga]Ga-PSMA-11, natGa-labeled standards, 1 h 37 °C", "procedure": "LNCaP prostate cancer cell line obtained from the American Type Culture Collection (ATCC, Manassas, VA) was used for cell affinity studies. The cells were grown in a meilunbio RPMI 1640 medium (ATCC modified) supplemented with 10% fetal bovine serum and 1% streptomycin/penicillin (Thermo Fisher Scientific, USA) at 37 °C in a humidified 5% CO2 atmosphere. Two days (48 ± 2 h) prior to in vitro experiments, the cells were harvested using trypsin-ethylenediaminetetraacetic acid (EDTA; 0.25% trypsin, 0.02% EDTA) in PBS and centrifuged. The supernatant was disposed, and the cell pellet was resuspended in a culture medium, and LNCaP cells (150,000 cells/well) were counted with a hemocytometer and seeded in poly-L-lysine-coated 24-well plates used in cell binding studies. The cells were then allowed to grow at 37 °C for 48 h. PC3-PIP cells provided by Professor Xiaoyuan Chen (Singapore) require additional Puromycin (2 µg/ml) in addition to the appealed culture conditions. Detailed information regarding uptake and internalization experiments can be found in the previous report.\nIn order to determine the binding affinity, a competitive cell binding assay was performed. […] The total radioactivity in each well was measured with a gamma counter. […]"}}, "note": "Like-named read-outs stand apart in the source and are kept apart here.", "data": [{"smiles": "O=C(O)CC[C@H](NC(=O)N[C@@H](CCCCN(CC(=O)NCCOCCOCCOCCOCCNC(=O)CN1CCN(CC(=O)O)CCN(CC(=O)O)CCN(CC(=O)O)CC1)C(=O)C1c2ccccc2-c2ccccc21)C(=O)O)C(=O)O.[68Ga]", "note": "[[^68Ga]Ga-PP4-WD]", "values": [{"measurement": "Radiochemical purity after incubation in PBS", "setting": "[1]", "value": 97, "unit": "%"}, {"measurement": "Renal uptake reduced by a factor compared to [68Ga]Ga-Flu-1", "setting": "[2]", "value": 40}, {"measurement": "Renal uptake, fold less compared to [68Ga]Ga-Flu-1", "setting": "[2]", "value": "tenfold"}, {"measurement": "Bone uptake", "setting": "[2]; 0.5 h", "value": "0.36±0.09", "unit": "%ID/g"}, {"measurement": "Tumor uptake", "setting": "[2]; 0.5 h", "value": "33.45 ± 3.40", "unit": "%ID/g"}, {"measurement": "Bone uptake", "setting": "[2]; 1 h", "value": "0.39±0.22", "unit": "%ID/g"}, {"measurement": "Tumor uptake", "setting": "[2]; 1 h", "value": "39.28 ± 3.25", "unit": "%ID/g"}, {"measurement": "Bone uptake", "setting": "[2]; 2 h", "value": "0.26±0.06", "unit": "%ID/g"}, {"measurement": "Tumor uptake", "setting": "[2]; 2 h", "value": "25.75 ± 2.43", "unit": "%ID/g"}, {"measurement": "Radioactivity upon blocking with 2-PMPA", "setting": "LNCaP tumors", "value": "substantially reduced radioactivity"}, {"measurement": "Radiochemical purity after incubation in human serum", "setting": "[3]", "value": "96.83 ± 0.87", "unit": "%"}, {"measurement": "Internalization in LNCaP cells", "setting": "LNCaP cells", "value": "9.36 ± 1.70", "unit": "%"}, {"measurement": "Uptake in LNCaP cells", "setting": "LNCaP cells", "value": "26.30 ± 2.06", "unit": "%"}, {"measurement": "Blood uptake", "setting": "[4]; 30 min p.i.", "value": "1.07±0.47", "unit": "%ID/g"}, {"measurement": "Bone uptake", "setting": "[4]; 30 min p.i.", "value": "0.41±0.17", "unit": "%ID/g"}, {"measurement": "Brain uptake", "setting": "[4]; 30 min p.i.", "value": "0.05±0.04", "unit": "%ID/g"}, {"measurement": "Heart uptake", "setting": "[4]; 30 min p.i.", "value": "0.39±0.26", "unit": "%ID/g"}, {"measurement": "Kidney uptake", "setting": "[4]; 30 min p.i.", "value": "17.85±4.66", "unit": "%ID/g"}, {"measurement": "Liver uptake", "setting": "[4]; 30 min p.i.", "value": "0.36±0.14", "unit": "%ID/g"}, {"measurement": "Lung uptake", "setting": "[4]; 30 min p.i.", "value": "0.99±0.22", "unit": "%ID/g"}, {"measurement": "Muscle uptake", "setting": "[4]; 30 min p.i.", "value": "0.36±0.25", "unit": "%ID/g"}, {"measurement": "Salivary uptake", "setting": "[4]; 30 min p.i.", "value": "0.46±0.16", "unit": "%ID/g"}, {"measurement": "Small int (small intestine) uptake", "setting": "[4]; 30 min p.i.", "value": "0.33±0.15", "unit": "%ID/g"}, {"measurement": "Spleen uptake", "setting": "[4]; 30 min p.i.", "value": "1.06±0.89", "unit": "%ID/g"}, {"measurement": "Stomach uptake", "setting": "[4]; 30 min p.i.", "value": "0.44±0.18", "unit": "%ID/g"}, {"measurement": "Tumor uptake", "setting": "[4]; 30 min p.i.", "value": "26.49±3.34", "unit": "%ID/g"}, {"measurement": "Blood uptake", "setting": "[4]; 60 min p.i.", "value": "0.19±0.05", "unit": "%ID/g"}, {"measurement": "Bone uptake", "setting": "[4]; 60 min p.i.", "value": "0.11±0.02", "unit": "%ID/g"}, {"measurement": "Brain uptake", "setting": "[4]; 60 min p.i.", "value": "0.02±0.01", "unit": "%ID/g"}, {"measurement": "Heart uptake", "setting": "[4]; 60 min p.i.", "value": "0.06±0.01", "unit": "%ID/g"}, {"measurement": "Kidney uptake", "setting": "[4]; 60 min p.i.", "value": "2.96±1.04", "unit": "%ID/g"}, {"measurement": "Liver uptake", "setting": "[4]; 60 min p.i.", "value": "0.16±0.03", "unit": "%ID/g"}, {"measurement": "Lung uptake", "setting": "[4]; 60 min p.i.", "value": "0.23±0.05", "unit": "%ID/g"}, {"measurement": "Muscle uptake", "setting": "[4]; 60 min p.i.", "value": "0.04±0.02", "unit": "%ID/g"}, {"measurement": "Salivary uptake", "setting": "[4]; 60 min p.i.", "value": "0.17±0.09", "unit": "%ID/g"}, {"measurement": "Small int (small intestine) uptake", "setting": "[4]; 60 min p.i.", "value": "0.1±0.04", "unit": "%ID/g"}, {"measurement": "Spleen uptake", "setting": "[4]; 60 min p.i.", "value": "0.22±0.05", "unit": "%ID/g"}, {"measurement": "Stomach uptake", "setting": "[4]; 60 min p.i.", "value": "0.09±0.02", "unit": "%ID/g"}, {"measurement": "Tumor uptake", "setting": "[4]; 60 min p.i.", "value": "27.43 ± 1.81", "unit": "%ID/g"}, {"measurement": "Blood uptake", "setting": "[4]; 120 min p.i.", "value": "0.17±0.04", "unit": "%ID/g"}, {"measurement": "Bone uptake", "setting": "[4]; 120 min p.i.", "value": "0.08±0.03", "unit": "%ID/g"}, {"measurement": "Brain uptake", "setting": "[4]; 120 min p.i.", "value": "0.01±0.01", "unit": "%ID/g"}, {"measurement": "Heart uptake", "setting": "[4]; 120 min p.i.", "value": "0.06±0.03", "unit": "%ID/g"}, {"measurement": "Kidney uptake", "setting": "[4]; 120 min p.i.", "value": "1.21±0.30", "unit": "%ID/g"}, {"measurement": "Liver uptake", "setting": "[4]; 120 min p.i.", "value": "0.14±0.05", "unit": "%ID/g"}, {"measurement": "Lung uptake", "setting": "[4]; 120 min p.i.", "value": "0.13±0.07", "unit": "%ID/g"}, {"measurement": "Muscle uptake", "setting": "[4]; 120 min p.i.", "value": "0.04±0.03", "unit": "%ID/g"}, {"measurement": "Salivary uptake", "setting": "[4]; 120 min p.i.", "value": "0.08±0.03", "unit": "%ID/g"}, {"measurement": "Small int (small intestine) uptake", "setting": "[4]; 120 min p.i.", "value": "0.07±0.03", "unit": "%ID/g"}, {"measurement": "Spleen uptake", "setting": "[4]; 120 min p.i.", "value": "0.13±0.10", "unit": "%ID/g"}, {"measurement": "Stomach uptake", "setting": "[4]; 120 min p.i.", "value": "0.06±0.03", "unit": "%ID/g"}, {"measurement": "Tumor uptake", "setting": "[4]; 120 min p.i.", "value": "19.42±4.00", "unit": "%ID/g"}, {"measurement": "Outcome of blocking imaging with 2-PMPA", "setting": "PC3-PIP tumors", "value": "in concordance with those observed in the LNCaP tumor model"}, {"measurement": "IC50", "setting": "PSMA", "value": "8.06 ± 0.91", "unit": "nM"}]}]}
